Measured values as given in patent US20120065187A1 (ALCON RESEARCH, LTD, priority 2008, published 2012).
Structures can show the parent of a compound that is named as a salt.

Target: T1, human H4 (Homo sapiens, UniProt Q9H3N8)
T1 construct: host or cells: CHO-K1
Assay: In vitro histamine receptor cell-based assay (aequorin bioluminescence), H4 antagonism
Conditions: CHO-K1 cells expressing human H4, aequorin and Gα16; histamine at EC80; read-out: H4 Antagonist EC50
Experimental: The cell-based assays utilize an aequorin dependent bioluminescence signal. Doubly-transfected, stable CHO-K1 cell lines expressing human H1 or H4, mitochondrion-targeted aequorin, and (H4 only) human G protein Gα16 are obtained from Perkin-Elmer. Cells are maintained in F12 (Ham's) growth medium, containing 10% (vol./vol.) fetal bovine serum, penicillin (100 IU/mL), streptomycin (0.1 mg/mL), zeocin (0.25 mg/mL) and geneticin (0.40 mg/mL). Cell media components are from Invitrogen, Inc. One day prior to assay, the growth medium is replaced with the same, excluding zeocin and geneticin.
For assay preparation, growth medium is aspirated, and cells are rinsed with calcium-free, magnesium-free phosphate-buffered saline, followed by two to three minute incubation in Versene (Invitrogen, Inc.) at 37° C. Assay medium (DMEM:F12 [50:50], phenol-red free, containing 1 mg/mL protease-free bovine serum albumin) is added to collect the released cells, which are then centrifuged. The cell pellet is re-suspended in assay medium, centrifuged once more, and re-suspended in assay medium to a final density of 5×10^6 cells/mL. Coelenterazine-h dye (500 μM in ethanol) is added to a final concentration of 5 μM, and mixed immediately. The conical tube containing the cells is then wrapped with foil to protect the light-sensitive dye. The cells are incubated for four hours further at room temperature (approximately 21° C.) with end-over-end rotation to keep them in suspension.
Just before assay, the dye-loaded cells are diluted to 0.75×10^6 cells/mL (H1 receptor) or 1.5×10^6 cells/mL (H4 receptor) with additional assay medium. Cells are dispensed to 1536 well micro-titer plates at 3 μL/well. To assay receptor antagonism, 60 nl of 100× concentration test compounds in 100% dimethyl sulfoxide (DMSO) are dispensed to the wells, one compound per well, by passive pin transfer, and the plates are incubated for 15 minutes at room temperature. […] The pipette dispenses 3 μL/well of agonist (histamine, at twice the final concentration, where final concentration is a previously determined EC80) in assay medium, with concurrent bioluminescence detection. Agonist activity of test compounds is excluded by separate assays that measure response to test compounds immediately, without added histamine agonist.
CCD image capture on the Lumilux includes a 5 second baseline read prior to agonist addition, and generally a 40 second read per plate after agonist addition. A decrease in bioluminescence signal (measured either as area-under-the-curve, or maximum signal amplitude minus minimum signal amplitude) correlates with receptor antagonism in a dose dependent manner. The negative control is DMSO lacking any test compound. For antagonist assays, the positive controls are diphenhydramine (2-Diphenylmethoxy-N,N-dimethylethylamine, 10 μM final concentration, H1 receptor) or JNJ7777120 (1-[(5-Chloro-1H-indol-2-yl)carbonyl]-4-methyl-piperazine, 10 μM final concentration, H4 receptor). Efficacy is measured as a percentage of positive control activity.

T1 sequence (Q9H3N8 whole entry): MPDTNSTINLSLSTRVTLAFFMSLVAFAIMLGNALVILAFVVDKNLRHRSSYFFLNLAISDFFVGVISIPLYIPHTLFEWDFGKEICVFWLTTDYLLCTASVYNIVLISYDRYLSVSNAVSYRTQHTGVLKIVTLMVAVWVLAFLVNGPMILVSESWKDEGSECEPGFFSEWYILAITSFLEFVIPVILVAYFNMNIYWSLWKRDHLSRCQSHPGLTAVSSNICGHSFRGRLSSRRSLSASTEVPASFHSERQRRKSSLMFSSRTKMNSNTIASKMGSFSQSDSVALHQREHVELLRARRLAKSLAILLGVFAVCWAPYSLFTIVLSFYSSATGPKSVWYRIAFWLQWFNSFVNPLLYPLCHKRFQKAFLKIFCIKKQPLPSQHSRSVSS

SMILES	EC50 [µM]
Brc1ccc2nc(N3CCNCC3)c3nnnn3c2c1 [Example 205, 8-bromo-4-(piperazin-1-yOtetrazolo[1,5-a]quinoxaline]	< 10
Clc1ccc2nc(N3CCN4CCCC4C3)c3nocc3c2c1 (centres unmarked) [Example 230, 8-chloro-4-(hexahydropyrrolo[1,2-a]pyrazin-2(1H)-yl)isoxazolo[3,4-c]quinoline]	< 10
CN1CCN(c2nc3ccc(Cl)cc3n3ncnc23)CC1 [Example 243, 8-chloro-4-(4-methylpiperazin-1-yl)-[1,2,4]triazolo[1,5-a]quinoxaline]	< 10
Cc1nc2c3cc(Br)cc(F)c3nc(N3CCN(C)CC3)n2n1 [Example 248, 9-bromo-7-fluoro-2-methyl-5-(4-methylpiperazin-1-yl)-[1,2,4]triazolo[1,5-c]quinazoline]	< 10
Clc1ccc2c(c1)nc(N1CCNCC1)c1nocc12 [Example 225, 7-chloro-4-(piperazin-1-yl)isoxazolo[3,4-c]quinoline]	< 10
Cc1nc2c(N3CCN(C)CC3)nc3ccc(Br)cc3n2n1 [Example 241, 8-bromo-2-methyl-4-(4-methylpiperazin-1-yl)-[1,2,4]triazolo[1,5-a]quinoxaline]	< 10
Cn1cc2c(n1)c(N1CCNCC1)nc1ccc(Br)cc12 [Example 235, 8-bromo-2-methyl-4-(piperazin-1-yl)-2H-pyrazolo[3,4-c]quinoline]	< 10
Brc1ccc2nc(N3CCNCC3)c3n[nH]cc3c2c1 [Example 233, 8-bromo-4-(piperazin-1-yl)-2H-pyrazolo[3,4-c]quinoline]	< 10
Clc1ccc2nc(N3CCN4CCCC4C3)c3nnnn3c2c1 (centres unmarked) [Example 213, 8-chloro-4-(hexahydropyrrolo[1,2-a]pyrazin-2(1H)-yl)tetrazolo[1,5-a]quinoxaline]	< 10
Cc1nc2c(N3CCN(C)CC3)nc3cc(F)c(Br)cc3n2n1 [Example 237, 8-bromo-7-fluoro-2-methyl-4-(4-methylpiperazin-1-yl)-[1,2,4]triazolo[1,5-a]quinoxaline]	< 10
CN1CCN(c2nc3ccc(Br)cc3n3nnnc23)CC1 [Example 204, 8-bromo-4-(4-methylpiperazin-1-yl)tetrazolo[1,5-a]quinoxaline]	< 10
Fc1cc(C(F)(F)F)cc2c1nc(N1CCNCC1)c1nnnn12 [Example 206, 6-fluoro-4-(piperazin-1-yl)-8-(trifluoromethyl)tetrazolo[1,5-a]quinoxaline hydrochloride]	< 10
Cc1nc2c(N3CCNCC3)nc3cc(F)c(C)cc3n2n1 [Example 240, 7-fluoro-2,8-dimethyl-4-(piperazin-1-yl)-[1,2,4]triazolo[1,5-a]quinoxaline]	< 10
CN1CCN(c2nc3c(F)cc(C(F)(F)F)cc3n3nnnc23)CC1 [Example 207, 6-fluoro-4-(4-methylpiperazin-1-yl)-8-(trifluoromethyl)tetrazolo[1,5-a]quinoxaline hydrochloride]	< 10
Cc1nc2c3cc(Cl)cc(F)c3nc(N3CCNCC3)n2n1 [Example 247, 9-chloro-7-fluoro-2-methyl-5-(piperazin-1-yl)-[1,2,4]triazolo[1,5-c]quinazoline]	< 10
CN1CCN(c2nc3cc(F)c(Br)cc3n3nnnc23)CC1 [Example 212, 8-bromo-7-fluoro-4-(4-methylpiperazin-1-yl)tetrazolo[1,5-a]quinoxaline]	< 10
FC(F)(F)c1ccc2c(c1)nc(N1CCNCC1)c1nocc12 [Example 221, 4-(piperazin-1-yl)-7-(trifluoromethyl)isoxazolo[3,4-c]quinoline]	> 10
Cc1nc2c(N3CCNCC3)nc3cc(F)c(Br)cc3n2n1 [Example 238, 8-bromo-7-fluoro-2-methyl-4-(piperazin-1-yl)-[1,2,4]triazolo[1,5-a]quinoxaline]	< 10

SMILES	EC50 [µM]
CN1CCN(c2nc3ccc(C(F)(F)F)c(F)c3n3nnnc23)CC1 [Example 171, 9-Fluoro-4-(4-methylpiperazin-1-yl)-8-(trifluoromethyl)tetrazolo[1,5-a]quinoxaline]	< 10
Fc1cc2nc(N3CCNCC3)c3nnnn3c2cc1Br [Example 211, 8-bromo-7-fluoro-4-(piperazin-1-yl)tetrazolo[1,5-a]quinoxaline]	< 10
Fc1cc2c(cc1Cl)nc(N1CCNCC1)c1nnnn12 [Example 202, 7-chloro-8-fluoro-4-(piperazin-1-yl)tetrazolo[1,5-a]quinoxaline]	< 10
Cc1nc2c3cc(Cl)cc(F)c3nc(N3CCN(C)CC3)n2n1 [Example 246, 9-chloro-7-fluoro-2-methyl-5-(4-methylpiperazin-1-yl)-[1,2,4]triazolo[1,5-c]quinazoline]	< 10
CN1CCN(c2nc3c(F)cc(Br)cc3n3cnnc23)CC1 [Example 208, 8-bromo-6-fluoro-4-(4-methylpiperazin-1-yl)-[1,2,4]triazolo[4,3-a]quinoxaline]	< 10
CN1CCN(c2nc3cc(Cl)c(F)cc3n3nnnc23)CC1 [Example 203, 7-chloro-8-fluoro-4-(4-methylpiperazin-1-yl)tetrazolo[1,5-a]quinoxaline]	< 10
Cc1nc2c(N3CCN(C)CC3)nc3cc(F)c(C)cc3n2n1 [Example 239, 7-fluoro-2,8-dimethyl-4-(4-methylpiperazin-1-yl)-[1,2,4]triazolo[1,5-a]quinoxaline]	< 10
CN1CCN(c2nc3ccc(Br)cc3c3cn(C)nc23)CC1 [Example 234, 8-bromo-2-methyl-4-(4-methylpiperazin-1-yl)-2H-pyrazolo[3,4-c]quinoline]	< 10
CN1CCN(c2nc3cc(F)c(F)cc3c3conc23)CC1 [Example 226, 7,8-difluoro-4-(4-methylpiperazin-1-yl)isoxazolo[3,4-c]quinoline]	< 10
Fc1cc(Br)cc2c1nc(N1CCNCC1)c1nncn12 [Example 209, 8-bromo-6-fluoro-4-(piperazin-1-yl)-[1,2,4]triazolo[4,3-a]quinoxaline]	< 10
CN1CCN(c2nc3c(F)cc(Br)cc3n3nnnc23)CC1 [Example 210, 8-bromo-6-fluoro-4-(4-methylpiperazin-1-yl)tetrazolo[1,5-a]quinoxaline]	< 10
Cc1nc2c(N3CCNCC3)nc3ccc(Br)cc3n2n1 [Example 242, 8-bromo-2-methyl-4-(piperazin-1-yl)-[1,2,4]triazolo[1,5-a]quinoxaline]	< 10
CCOC(=O)c1nc2c(N3CCN(C)CC3)nc3ccc(Cl)cc3n2n1 [Example 244, Ethyl 8-chloro-4-(4-methylpiperazin-1-yl)-[1,2,4]triazolo[1,5-a]quinoxaline-2-carboxylate]	> 10
CN1CCN(c2nc3cc(Br)ccc3c3conc23)CC1 [Example 228, 7-bromo-4-(4-methylpiperazin-1-yl)isoxazolo[3,4-c]quinoline]	< 10
Fc1cc2nc(N3CCNCC3)c3nocc3c2cc1F [Example 227, 7,8-difluoro-4-(piperazin-1-yl)isoxazolo[3,4-c]quinoline]	< 10
CN1CCN(c2nc3cc(Cl)ccc3c3conc23)CC1 [Example 224, 7-chloro-4-(4-methylpiperazin-1-yl)isoxazolo[3,4-c]quinoline]	< 10
FC(F)(F)c1ccc2nc(N3CCNCC3)c3[nH]ncc3c2c1 [Example 231, 4-(piperazin-1-yl)-8-(trifluoromethyl)-3H-pyrazolo[3,4-c]quinoline]	< 10
